Structures can show the parent of a compound that is named as a salt.

The first test has as its target cAMP-dependent protein kinase catalytic subunit alpha (Homo sapiens, UniProt P17612). The experiment in a line: inhibition of cAMP-dependent kinase PKA – biochemical, Kinase-Glo luminescence, Kemptide substrate, dose response (AID 548).
Details: not given
(In Kinase-Glo more light means more ATP remaining.)
On to `C1=C(c2c[nH]c3ccccc23)CCNC1`, for which the IC50 (usually the concentration needed to halve the response being measured) was more than 59.6 µM.

In the case of `O=C(CSc1nnc(-c2ccncc2)[nH]1)c1ccccc1`, the IC50 amounted to 24.6 µM.

In turn, `Nc1[nH]nc2nc(N3CCCC3)nc(-c3ccccc3)c12` yielded an IC50 of more than 59.6 µM.

In turn, `c1ccc(CCCNc2[nH]cnc3ncnc2-3)cc1` yielded an IC50 of 39.5 µM.

`c1ccc2c(-c3ccncc3)c[nH]c2c1` displayed an IC50 of 11.3 µM.

In turn, `CCN1CCN(Cc2nnnn2C(C)(C)C)CC1` [1-(1-tert-Butyl-1H-tetrazol-5-ylmethyl)-4-ethyl-piperazine] yielded an IC50 of more than 59.6 µM.

Take `CC(=O)n1cc(-c2ccncc2)c2ccccc21` [1-(3-pyridin-4-yl-1-indolyl)ethanone;hydrochloride]: the IC50 stood at 45 µM.

`COc1cc2c(cc1NC(=O)COC(=O)Cn1cnc3ccccc31)oc1ccccc12` [2-(1-benzimidazolyl)acetic acid [2-[(2-methoxy-3-dibenzofuranyl)amino]-2-oxoethyl] ester] returned an IC50 of 37.5 µM.

`COc1ccc2c(Cl)c(C(N)=O)sc2c1` [3-Chloro-6-methoxy-benzo[b]thiophene-2-carboxylic acid amide] returned a half-maximal inhibitory concentration (IC50) of more than 59.6 µM.

The molecule `CCC1CCCCN1c1nc(-c2ccncc2)nc2ccccc12` (centres undefined) [4-(2-ethyl-1-piperidinyl)-2-pyridin-4-ylquinazoline] came in with a half-maximal inhibitory concentration (IC50) of 13.6 µM.

Take `Nc1nonc1-n1nncc1-c1ccccc1` [4-(5-phenyl-1,2,3-triazol-1-yl)-1,2,5-oxadiazol-3-amine]: the IC50 was more than 59.6 µM.

For the molecule `Cc1ccc(SCc2nc(-c3ccncc3)no2)cc1` [4-(5-{[(4-methylphenyl)thio]methyl}-1,2,4-oxadiazol-3-yl)pyridine], the IC50 was more than 59.6 µM.

In turn, `O=C(CCCOc1ccccc1)Nc1ccncc1` [4-Phenoxy-N-pyridin-4-yl-butyramide] gave an IC50 of more than 59.6 µM.

`Fc1ccccc1N1CCN(c2ncnc3n[nH]cc23)CC1` [4-[4-(2-fluorophenyl)piperazin-1-yl]-1H-pyrazolo[3,4-d]pyrimidine] displayed an IC50 of 52.3 µM.

As for `Clc1ccc(OCCN2CCN(c3ncnc4sccc34)CC2)cc1` [4-[4-[2-(4-chloranylphenoxy)ethyl]piperazin-1-yl]thieno[2,3-d]pyrimidine], the IC50 came to 59.2 µM.

`Cc1ccc(S(=O)(=O)NCCSc2nnnn2-c2ccc(C(N)=O)cc2)cc1` [4-[5-[2-(tosylamino)ethylthio]tetrazol-1-yl]benzamide]: the 50% inhibitory concentration (IC50) was 10.4 µM.

`Cn1c(SCc2ccc(Br)cc2)nnc1-c1ccncc1` [4-[5-[(4-bromobenzyl)thio]-4-methyl-1,2,4-triazol-3-yl]pyridine] had an IC50 of more than 59.6 µM.

Turning to `Nc1c(S(=O)(=O)c2cccc(Cl)c2)c2c(n1N=CC1=CC(=O)C(=O)C=C1)Nc1ccccc1N2` [4-[[2-azanyl-3-(3-chlorophenyl)sulfonyl-4,9-dihydropyrrolo[3,2-b]quinoxalin-1-yl]iminomethyl]cyclohexa-3,5-diene-1,2-dione], the IC50 was more than 59.6 µM.

Molecule `Cc1c2ccncc2c(C)c2c1[nH]c1ccccc12` [5,11-dimethyl-2H-pyrido[4,3-b]carbazole] returned an IC50 of 4.09 µM.

On to `c1nc(N2CCCC2)c2[nH]cnc2n1` [6-(1-pyrrolidinyl)-7H-purine], for which half-maximal inhibition (IC50) required 35.6 µM.

The molecule `c1ccc(Cn2ncc3c2ncn2c(-c4ccncc4)nnc32)cc1` [7-Benzyl-3-pyridin-4-yl-7H-pyrazolo[4,3-e][1,2,4]triazolo[4,3-c]pyrimidine] displayed a concentration for half-maximal inhibition (IC50) of more than 19.9 µM.

As to `CCc1cc2c(O)ncnc2s1` [MLS000029626], the IC50 is more than 59.6 µM.

In the case of `Cc1cc2c(ccc3[nH]onc32)n1` [MLS000038925], the IC50 amounted to 50.5 µM.

For `CN(C(=O)COc1ccccc1)c1nnc(-c2ccncc2)s1` [MLS000075421], the IC50 is more than 59.6 µM.

With `c1ccc(Cn2ncc3c2ncn2nc(-c4ccncc4)nc32)cc1` [MLS000078634], the IC50 was more than 19.9 µM.

In turn, `Cc1cc2ccccc2c(=O)n1CC(=O)Nc1ccc2c(c1)OCO2` [MLS000086255] came in with an IC50 of more than 59.6 µM.

`O=NCc1c[nH]c2ccccc12` [MLS000104363] showed an IC50 of 34.4 µM.

Take `Cc1cccc(NC(=O)CSc2n[nH]c(-c3ccncc3)n2)c1` [N-(3-methylphenyl)-2-[(5-pyridin-4-yl-1H-1,2,4-triazol-3-yl)thio]acetamide]: the IC50 is more than 59.6 µM.

With `c1nc(NC2CCCCC2)c2[nH]cnc2n1` [N-cyclohexyl-7H-purin-6-amine], 8.94 µM corresponded to half-maximal inhibition (IC50).

In turn, `Fc1cc2nc(-c3ccncc3)[nH]c2cc1F` [SMR000040673] showed an IC50 of more than 59.6 µM.

Take `CCOc1ccc2nc3ccc4[nH]onc4c3c2c1` [SMR000111865]: the IC50 was more than 59.6 µM.

The same test, now with this note: inactive by the depositor's call.
As for `NC(=O)c1sc2nc(N3CCCCC3)c3c(c2c1N)CCCC3` [1-amino-5-(1-piperidinyl)-6,7,8,9-tetrahydrothieno[2,3-c]isoquinoline-2-carboxamide], the midpoint of inhibition, the IC50, lay at 358 µM.

Molecule `Fc1ccccc1Cn1nnc2c(-n3ccnc3)ncnc21` [3-(2-Fluoro-benzyl)-7-imidazol-1-yl-3H-[1,2,3]triazolo[4,5-d]pyrimidine] showed a concentration for half-maximal inhibition (IC50) of 231 µM.

`CC1(C)Cc2c(c(-c3ccco3)nc3n[nH]c(N)c23)CO1` [SMR000045457] yielded an IC50 of 70.1 µM.
